Laboratory results taken from the supplement of paper PMC10307832.

Columns and labels:
Assay in all cases: relative viability (nuclei count vs DMSO), 5 days (fraction); higher = more cells survive
[1] = compound: Nc1nc2[nH]cc(CCc3ccc(C(=O)N[C@@H](CCC(=O)O)C(=O)O)cc3)c2c(=O)[nH]1 [Pemetrexed] + COc1cccc2cc(-c3nc([C@H]4CC[C@H](C(=O)O)CC4)n4ncnc(N)c34)[nH]c12 [OSI-027] (partner 0.5 µM)
How it was run: (§1)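 A single step with final 0.05% Triton X-100, 1% formaldehyde and 1 ug/ml Hoechst fixed the cells and stained nuclei 5 days after treatment. Lung cancer cell lines in 1536-well plates had been treated by pin tool the day after seeding with one drug alone or a fixed anchor-drug dose plus five library-drug doses (not always all listed) in √10 steps, and nuclei were counted on 4× images. Relative viability is the ratio of nuclei in treated wells to nuclei in vehicle wells, taken as the median of duplicate plates.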

[2] = compound: CC[C@H](Nc1ncnc2[nH]cnc12)c1nc2cccc(F)c2c(=O)n1-c1ccccc1 [Idelalisib] + Cc1nc(Nc2ncc(C(=O)Nc3c(C)cccc3Cl)s2)cc(N2CCN(CCO)CC2)n1 [Dasatinib] (partner 0.075 µM)
How it was run: as §1

[3] = compound: CC[C@H](Nc1ncnc2[nH]cnc12)c1nc2cccc(F)c2c(=O)n1-c1ccccc1 [Idelalisib] + N=C(N)NC(=N)NCCc1ccccc1 [Phenformin] (partner 250 µM)
How it was run: as §1

[4] = compound: Nc1nc2[nH]cc(CCc3ccc(C(=O)N[C@@H](CCC(=O)O)C(=O)O)cc3)c2c(=O)[nH]1 [Pemetrexed] + NC(=O)Nc1cc(-c2cccc(F)c2)sc1C(=O)N[C@H]1CCCNC1 [AZD7762] (partner 0.2 µM)
How it was run: as §1

| Cell Line | relative viability ([1]; first compound 0.002 µM) | relative viability ([1]; first compound 0.006325 µM) | relative viability ([1]; first compound 0.02 µM) | relative viability ([1]; first compound 0.06325 µM) | relative viability ([1]; first compound 0.2 µM) | relative viability ([2]; first compound 0.04 µM) | relative viability ([2]; first compound 0.1265 µM) | relative viability ([2]; first compound 0.4 µM) | relative viability ([2]; first compound 1.265 µM) | relative viability ([2]; first compound 4 µM) | relative viability ([3]; first compound 0.04 µM) | relative viability ([3]; first compound 0.1265 µM) | relative viability ([3]; first compound 0.4 µM) | relative viability ([3]; first compound 1.265 µM) | relative viability ([3]; first compound 4 µM) | relative viability ([4]; first compound 0.002 µM) | relative viability ([4]; first compound 0.006325 µM) | relative viability ([4]; first compound 0.02 µM) | relative viability ([4]; first compound 0.06325 µM) | relative viability ([4]; first compound 0.2 µM) |
| --- | --- | --- | --- | --- | --- | --- | --- | --- | --- | --- | --- | --- | --- | --- | --- | --- | --- | --- | --- | --- |
| NCI-H2087 | 0.55 | 0.512 | 0.538 | 0.589 | 0.524 | 0.966 | 0.906 | 0.696 | 1.03 | 0.514 | 0.515 | 0.494 | 0.36 | 0.5 | 0.326 | 1.2 | 1.22 | 1.44 | 1.3 | 0.799 |
| NCI-H322M | 0.606 | 0.484 | 0.536 | 0.583 | 0.476 | 0.284 | 0.246 | 0.248 | 0.251 | 0.263 | 0.901 | 0.846 | 0.66 | 0.741 | 0.735 | 0.709 | 0.634 | 0.565 | 0.637 | 0.557 |
| NCI-H1734 | 0.65 | 0.564 | 0.675 | 0.571 | 0.53 | 0.468 | 0.487 | 0.338 | 0.454 | 0.374 | 0.455 | 0.446 | 0.344 | 0.377 | 0.377 | 0.415 | 0.584 | 0.649 | 0.508 | 0.332 |
| EKVX | 0.673 | 0.678 | 0.693 | 0.706 | 0.611 | 0.492 | 0.549 | 0.348 | 0.436 | 0.341 | 0.244 | 0.258 | 0.213 | 0.225 | 0.234 | 0.589 | 0.645 | 0.636 | 0.549 | 0.654 |
| NCI-H596 | 0.705 | 0.691 | 0.642 | 0.632 | 0.414 | 0.586 | 0.631 | 0.493 | 0.575 | 0.549 | 0.75 | 0.765 | 0.689 | 0.731 | 0.616 | 1.17 | 1.1 | 1.07 | 0.472 | 0.362 |
| NCI-H1975 | 0.528 | 0.681 | 0.873 | 0.557 | 0.394 | 0.363 | 0.436 | 0.263 | 0.402 | 0.293 | 0.426 | 0.418 | 0.369 | 0.408 | 0.357 |  | 0.819 | 0.818 | 0.583 | 0.35 |
| NCI-H2170 | 0.656 | 0.698 | 0.692 | 0.708 | 0.744 | 0.661 | 0.473 | 0.536 | 0.383 | 0.554 | 0.443 | 0.449 | 0.403 | 0.408 | 0.373 | 0.873 | 0.916 | 0.864 | 0.774 | 0.357 |
| NCI-H1666 | 0.961 | 0.758 | 0.955 | 0.906 | 0.79 | 0.79 | 0.863 | 0.676 | 0.79 | 0.773 | 0.618 | 0.57 | 0.539 | 0.583 | 0.546 | 0.79 | 0.843 | 0.835 | 0.72 | 0.456 |
| PC-3 [JPC-3] | 0.59 | 0.786 | 0.715 | 0.916 | 0.765 | 0.814 | 0.973 | 0.908 | 0.879 | 0.892 | 0.454 | 0.484 | 0.477 | 0.451 | 0.42 | 0.448 | 0.968 | 1 | 0.808 | 0.861 |
| NCI-H1755 | 0.685 | 0.797 | 0.782 | 0.691 | 0.667 | 0.399 | 0.456 | 0.312 | 0.366 | 0.338 | 0.633 | 0.601 | 0.558 | 0.675 | 0.531 | 0.42 | 0.453 | 0.483 | 0.393 | 0.295 |
| RERF-LC-KJ | 0.528 | 0.508 | 0.666 | 0.546 | 0.451 | 0.808 | 0.829 | 0.726 | 0.687 | 0.668 | 0.442 | 0.438 | 0.419 | 0.44 | 0.373 | 0.837 | 1.49 | 0.919 | 1.04 | 0.618 |
| NCI-H647 | 0.467 | 0.492 | 0.806 | 0.744 | 0.318 | 0.194 | 0.203 |  | 0.173 | 0.127 | 0.673 | 0.498 |  | 0.38 | 0.299 | 0.488 | 0.626 | 0.435 | 0.333 | 0.143 |
| BEN | 0.318 | 0.301 | 0.302 | 0.296 | 0.332 | 0.305 | 0.318 | 0.32 | 0.364 | 0.31 | 0.277 | 0.27 | 0.262 | 0.28 | 0.281 | 0.746 | 0.849 | 0.765 | 0.638 | 0.648 |
| 201T | 0.748 | 0.739 | 0.748 | 0.617 | 0.406 | 0.609 | 0.614 | 0.476 | 0.623 | 0.605 | 0.497 | 0.416 | 0.328 | 0.488 | 0.423 | 0.606 | 0.612 | 0.725 | 0.512 | 0.374 |
| LC-2-ad | 0.606 | 0.831 | 0.561 | 0.28 | 0.339 | 0.583 | 0.48 | 0.424 | 0.626 | 0.519 | 0.602 | 0.592 | 0.462 | 0.626 | 0.546 | 0.726 | 0.816 | 0.43 | 0.276 | 0.233 |
| NCI-H522 | 0.794 | 0.65 | 0.796 | 0.706 | 0.676 | 1.08 | 0.814 | 0.894 | 0.895 | 0.791 | 0.675 | 0.66 | 0.641 | 0.761 | 0.634 | 0.999 | 0.806 | 1.05 | 0.91 | 0.805 |
